From patent US20080306054A1, “Pharmaceutical Compounds” (ASTEX THERAPEUTICS LIMITED, priority 2005, published 2008)

How the values were obtained:
[1] = target: T1, Human Hsp90α N-terminal domain (Homo sapiens, UniProt P07900); assay: Isothermal titration calorimetry (ITC); assay type: binding; settings: pH 7.4
T1 construct: purification of the Human Hsp90α N-terminal domain were performed according to published methods; made in house
Description: The ability of the compounds of the invention to bind to human Hsp90 proteins was determined using isothermal titration calorimetry.
Isothermal titration calorimetry (ITC) experiments were performed with a VP-ITC titration calorimeter (Microcal Inc., Northampton, Mass., USA). […] All solutions were filtered and degassed prior to a titration being carried out. The enthalpy change resulting from each injection of ligand was obtained through integration of the calorimetric signal. Data were analysed using Origin 7.0 (Microcal Software Inc., Northampton, Mass.). Heats of dilution were estimated using the final injections of each individual titration and subtracted before data fitting. Different ITC experimental formats were employed in order to obtain compound dissociation constants (Kd's) over a wide range of affinities. […] In this type of experiment the stoichiometry parameter (N) was locked at 1 for data fitting.

HCT116 cell line = assay: Anti-proliferative activity, Alamar Blue assay; assay type: cell-based; settings: HCT-116, human colon cancer cell line HCT116, 72 hours with compound, read-out: IC50 values against the HCT116 cell line
Description: The anti-proliferative activities of compounds of the invention can be determined by measuring the ability of the compounds to inhibition of cell growth in a number of cell lines such as the human colon cancer cell line HCT116. Inhibition of cell growth is measured using the Alamar Blue assay (Nociari, M. M, Shalev, A., Benias, P., Russo, C. Journal of Immunological Methods 1998, 213, 157-167). The method is based on the ability of viable cells to reduce resazurin to its fluorescent product resorufin. For each proliferation assay cells are plated onto 96 well plates and allowed to recover for 16 hours prior to the addition of inhibitor compounds for a further 72 hours. At the end of the incubation period 10% (v/v) Alamar Blue is added and incubated for a further 6 hours prior to determination of fluorescent product at […]. In the case of the non-proliferating cell assay cells are maintained at confluence for 96 hour prior to the addition of inhibitor compounds for a further 72 hours. The number of viable cells is determined by Alamar Blue assay as before. Cell lines can be obtained from the ECACC (European Collection of cell Cultures).

Structure (SMILES)	Kd [1] [µM]	IC50 (HCT116 cell line) [µM]
CC(C)(C)c1cc(C(=O)N2CCC(O)(c3ccccc3)CC2)ccc1O [Example 37, (3-tert-Butyl-4-hydroxy-phenyl)-(4-hydroxy-4-phenyl-piperidin-1-yl)-methanone]	–	< 10
CC(C)c1cc(C(=O)N2CC[C@@H](O)C2)c(O)cc1O (stereo in doubt) [Example 61, (2,4-dihydroxy-5-isopropyl-phenyl)-(3-hydroxy-pyrrolidin-1yl)-methanone]	–	< 10
CC(C)c1cc(C(=O)N2CCC(CCO)CC2)c(O)cc1O [Example 57]	< 1	< 10
CC(C)c1cc(C(=O)N2CCN(C(=O)OC(C)(C)C)CC2)c(O)cc1O [Example 69, 4-(2,4-dihydroxy-5-isopropyl-benzoyl)-piperazine-1-carboxylic acidtert-butyl ester]	–	< 10
CC(C)c1cc(C(=O)N2CCC(CO)CC2)c(O)cc1O [Example 58, (2,4-dihydroxy-5-isopropyl-phenyl)-(4-hydroxymethyl-piperidin-yl)-methanone]	–	< 10
CC(C)(C)c1cc(C(=O)N2CCOCC2)c(O)cc1O [Example 54, (5-tert-Butyl-2,4-dihydroxy-phenyl)-morpholin-4-yl-methanone]	< 1	< 10
CC1CN(C(=O)c2cc(C(C)C)c(O)cc2O)CC(C)O1 (stereo not shown) [Example 59, (2,4-dihydroxy-5-isopropyl-phenyl)-(2,6-dimethyl-morpholin-4-yl)-methanone]	–	< 10
CCOC(=O)CC1CCN(C(=O)c2cc(C(C)C)c(O)cc2O)CC1 [Example 60, [1-(2,4-dihydroxy-5-isopropyl-benzoyl)-piperidin-4-yl)-acetic acidethyl ester]	–	< 10
CC(C)c1cc(C(=O)N2CCS(=O)(=O)CC2)c(O)cc1O [Example 68, (2,4-dihydroxy-5-isopropyl-phenyl)-(1,1-dioxo-1lambda*6*-thiomorpholin-4-yl)-methanone]	–	< 10

Results, then the compound that gave them:

Kd [1] [µM]	IC50 (HCT116 cell line) [µM]	Structure (SMILES)
< 1	< 10	CC(C)c1cc(C(=O)N(c2ccc(F)cc2)C2CCOCC2)c(O)cc1O [Example 73, N-(4-fluoro-phenyl)-2,4-dihydroxy-5-isopropyl-N-(tetrahydro-pyran-4-yl)-benzamide]
< 1	< 10	CC(C)c1cc(C(=O)N2CCN(CCN(C)C)CC2)c(O)cc1O [Example 56, (2,4-dihydroxy-5-isopropyl-phenyl)-[4-(2-dimethylamino-ethyl)-piperazin-1-yl]-methanone]
< 1	–	CC(C)c1cc(C(=O)N2CCOCC2)ccc1O [Example 20, (4-Hydroxy-3-isopropyl-phenyl)-morpholin-4-yl-methanone]
–	< 10	CC(C)c1cc(C(=O)N2CCN(C)CC2)c(O)cc1O [Example 66, (2,4-dihydroxy-5-isopropyl-phenyl)-(4-methyl-piperazin-1-yl)-methanone]
< 1	< 10	CC(C)c1cc(C(=O)N(Cc2ccccc2)c2ccc(CN3CCOCC3)cc2)c(O)cc1O [Example 65, N-benzyl-2,4-dihydroxy-5-isopropyl-N-(4-morpholin-4-ylmethyl-phenyl)-benzamide]
–	< 10	CNC(=O)CN(C(=O)c1cc(C(C)C)c(O)cc1O)c1ccc(CN2CCOCC2)cc1 [Example 63, 2,4-dihydroxy-5-isopropyl-N-methylcarbamoylmethyl-N-(4-morpholin-4-ylmethyl-phenyl)-benzamide]
< 1	–	CC(C)c1cc(C(=O)N2CCOCC2)c(O)cc1O [Example 29, (2,4-Dihydroxy-5-isopropyl-phenyl)-morpholin-4-yl-methanone]
–	< 10	CC(C)c1cc(C(=O)N(C)c2ccc(CN3CCOCC3)cc2)c(O)cc1O [Example 64, 2,4-dihydroxy-5-isopropyl-N-methyl-N-(4-morpholin-4-yl-methyl-phenyl)-benzamide]
–	< 10	CCN(C(=O)c1cc(C(C)C)c(O)cc1O)c1ccc(F)cc1 [Example 71, N-ethyl-N-(4-fluoro-phenyl)-2,4-dihydroxy-5-isopropyl-benzamide]
–	< 10	CNC(=O)CN(C(=O)c1cc(C(C)C)c(O)cc1O)c1ccc(F)cc1 [Example 62, N-(4-fluoro-phenyl)-2,4-dihydroxy-5-isopropyl-N-methylcarbamoylmethyl-benzamide]
< 1	< 10	CC(C)c1cc(C(=O)N2CCOC(CO)C2)c(O)cc1O (stereo not shown) [Example 55, (2,4-dihydroxy-5-isopropyl-phenyl)-(2-hydroxymethyl-morpholin-4yl)-methanone]
–	< 10	CC(C)c1cc(C(=O)N(C)c2ccc(F)cc2)c(O)cc1O [Example 70, N-(4-fluoro-phenyl)-2,4-dihydroxy-5-isopropyl-N-methyl-benzamide]
–	< 10	CC(C)c1cc(C(=O)N(CCC#N)c2ccc(F)cc2)c(O)cc1O [Example 72, N-(2-cyano-ethyl)-N-(4-fluoro-phenyl)-2,4-dihydroxy-5-isopropyl-benzamide]
